Data from US20060122264A1, “Stem cell invasion inhibitor” (Yasumi Uchida, etal, priority 2003, published 2006).
Entries after “also recorded” stand apart in the source; their conditions may differ. Where two headings read alike, the source gives them in different places. Marks after values point to notes of the source that are not given here.

Key:
[1] = system: β-actin-positive stem cells in the coronary artery wall; assay: Prevention of stem cell invasion associated with coronary angioplasty, local administration by pored balloon catheter: stem cell count; assay type: in vivo, beagle dogs; conditions: for stem cell density compared with the non-administration group: at all the membranes
Source text: (§1) Nembutal-anesthetized beagle dogs were employed for the test. Each of the animals was endotracheally intubated, and ventilated with air. Subsequently, an 8-French sheath was inserted into the right common carotid artery. An 8-French guide catheter was inserted through the sheath, followed by coronary angiography. Subsequently, a clinically employed balloon catheter for coronary angioplasty (outer diameter: 3 mm, length: 20 mm) was inserted, and then the balloon was expanded at 9 atm, to thereby dilate a distal to intermediate portion of the anterior descending branch of the coronary artery. Through this procedure, the blood vessel wall was damaged. Subsequently, the aforementioned perforated balloon catheter equipped with an injection syringe containing 5% phenolsulfonphthalein (0.5 mL) or 5% bromosulfophthalein (0.5 mL) was guided by a guide wire and inserted into the above-dilated portion, and the phthalein compound (drug) was injected into the blood vessel wall at 3 atm. After completion of injection of the drug, the catheter was removed, and then the cervical portion through which the catheter had been inserted was sutured, followed by administration of an antibiotic. After recovery from anesthesia, the animal was cared for one week to one month, and was again subjected to coronary angiography. One week to one month later, the animal was anesthetized to stop cardiac beat and, the heart was removed from the animal, and then subjected to formalin fixation, followed by preparation of a microscopic sample of the above-dilated portion. Subsequently, the thus-prepared sample was subjected to azan staining and various immunostainings.
(§2) In connection with this finding, in the above-immunostained sample, stem cells per unit area (250×250 um^2) were counted at the highest-cell-density site of the intima, media, or adventitia. Comparison (in terms of the number of stem cells) was performed between drug administration groups and a non-administration group (control group) in which merely saline (0.5 mL) was injected into a portion of the coronary artery dilated with a balloon, and P<0.05 (by Student t test) was regarded as a significant difference.

[2] = system: Human umbilical vein endothelial cells (HUBEC); assay: Proliferation of human vascular endothelial cells; assay type: cell-based; conditions: for number of cells after culturing for three days: Endothelial cells
Description: (§3) Human umbilical vein endothelial cells (HUBEC) (1×10^5/cm^2) were inoculated into a medium containing MCDB-104, 10% FBS, ECGF (100 ng/mL), EGF (10 ng/mL), and heparin (100 ng/mL), and phenolsulfonphthalein or bromosulfophthalein was added to the medium, followed by culturing for three days. Thereafter, the resultant cells were counted, and the number of the cells was compared with that in the case where no drug was added to the medium. In a manner similar to that described above, human coronary artery smooth muscle cells (1×10^5/cm^2) were cultured in a medium containing MCDB-104, 10% FBS, and EGF (10 ng/mL) for three days, and the resultant cells were counted.

[3] = system: dendritic cells in the coronary artery wall; assay: Prevention of cell invasion associated with coronary angioplasty, local administration: dendritic cell count (CD40 immunostaining); assay type: in vivo, beagle dogs; conditions: for Number of dendritic cells (250 × 250 μm^2): 5% drug 0.5 mL injected locally after balloon dilation; for invasion of dendritic cells: CD40 antibody immunostaining
Source text: as §1, §2
Dendritic cells, which are inflammatory cells, were subjected to immunostaining with a CD40 antibody.

[4] = system: coronary artery stenosis; assay: Coronary artery stenosis after balloon angioplasty, local administration (coronary angiography, azan staining); assay type: in vivo, beagle dogs; conditions: for stenosis as determined through coronary angiography: compared with non-administration group; for Stenosis degree (%): coronary angiography, 5% drug 0.5 mL injected locally after balloon dilation
Source text: as §1

[5] = system: human coronary artery smooth muscle cells; assay: Proliferation of human coronary artery smooth muscle cells; assay type: cell-based; conditions: for number of cells after culturing for three days: Smooth muscle cells
Description: as §3

[6] = system: coronary artery stenosis; assay: Insertion of drug-eluting stent into coronary artery: degree of stenosis; assay type: in vivo, beagle dogs; conditions: one month, most stenotic site of stent-inserted portion
Source text: Nembutal-anesthetized beagle dogs were employed for the test. While each of the animals was ventilated with air, an 8-French guide catheter was inserted through the right common carotid artery, followed by left coronary angiography. Subsequently, a drug-eluting stent (inner layer: PLGA 7510 containing 50% phenolsulfonphthalein, outer layer: PLA 0010 containing 50% phenolsulfonphthalein) was inserted into the left circumflex branch, and then expanded at 9 atm, followed by placement of the stent. After recovery from anesthesia, the animal was bred for one month, and then was again subjected to coronary angiography. The degree of stenosis was measured at the most stenotic site of the stent-inserted portion, and the thus-measured stenosis degree was compared with that in the case of a non-eluting stent group (i.e., a group in which a stent that is not coated with a drug was inserted). Subsequently, the heart was extirpated from the animal, and then subjected to formalin fixation. Thereafter, a microscopic sample of the stent-inserted portion was prepared, followed by staining of vascular smooth muscle β-actin. Stem cells per unit area were counted at the highest-cell-density site of the intima, media, or adventitia of the above-stained sample. […]

[7] = system: β-actin-positive vascular stem cells in coronary artery; assay: Insertion of drug-eluting stent into coronary artery: stem cell density; assay type: in vivo, beagle dogs; conditions: two-layer-coated drug-eluting stent (inner PLGA 7510, outer PLA 0010), one month
Source text: Nembutal-anesthetized beagle dogs were employed for the test. While each of the animals was ventilated with air, an 8-French guide catheter was inserted through the right common carotid artery, followed by left coronary angiography. Subsequently, a drug-eluting stent (inner layer: PLGA 7510 containing 50% phenolsulfonphthalein, outer layer: PLA 0010 containing 50% phenolsulfonphthalein) was inserted into the left circumflex branch, and then expanded at 9 atm, followed by placement of the stent. After recovery from anesthesia, the animal was bred for one month, and then was again subjected to coronary angiography. The degree of stenosis was measured at the most stenotic site of the stent-inserted portion, and the thus-measured stenosis degree was compared with that in the case of a non-eluting stent group (i.e., a group in which a stent that is not coated with a drug was inserted). Subsequently, the heart was extirpated from the animal, and then subjected to formalin fixation. Thereafter, a microscopic sample of the stent-inserted portion was prepared, followed by staining of vascular smooth muscle β-actin. Stem cells per unit area were counted at the highest-cell-density site of the intima, media, or adventitia of the above-stained sample. Comparison (in terms of stem cell density) was performed between the drug-eluting stent group and the non-eluting stent group (i.e., the group in which a stent that is not coated with a drug was inserted).

[8] = system: thrombus in the right common carotid artery; assay: Arterial thrombosis, carotid intima damaged by Dotter balloon catheter; assay type: in vivo, dogs; conditions: 10 mg/kg intravenously; for Average thrombus weight: wet weight thirty minutes after intima damage
Description: Anesthetized dogs were employed for the test. Phenolsulfonphthalein or bromosulfophthalein (10 mg/kg, which is 100 times the amount clinically used for renal function testing) was intravenously administered to each of the animals, and the intima of the right common carotid artery was damaged by means of a Dotter balloon catheter. Thirty minutes later, the common carotid artery was extirpated, and the wet weight of thrombus present in the carotid artery was measured. The thus-measured wet weight was compared with that in the case of the control group.

[9] = system: stenosis at the talc-administered site; assay: Inflammatory stenosis caused by talc at the coronary artery adventitia: degree of stenosis; assay type: in vivo, beagle dogs
Description: (§4) Anesthetized beagle dogs were employed for the test. While each of the animals was ventilated with air, thoracotomy was performed at the left fifth intercostal space, to thereby expose the heart. Subsequently, talc powder was administered to the vicinity of the adventitia at an intermediate portion of the anterior descending branch of the left coronary artery, which caused inflammation. Subsequently, the thoracotomy site was closed, and phenolsulfonphthalein was injected under conditions similar to those of the test described above in (A) by use of a perforated balloon equipped with an injection syringe containing the drug. After recovery from anesthesia, the animal was bred for one month, and then subjected to coronary angiography. Thereafter, the heart was extirpated from the animal, and then subjected to formalin fixation. A microscopic sample of the talc-administered portion was prepared, and the sample was subjected to β-actin staining, followed by determination of the density of β-actin-positive cells (i.e., stem cells).

[10] = system: β-actin-positive stem cells at the talc-administered site; assay: Inflammatory stenosis caused by talc at the coronary artery adventitia: stem cell density; assay type: in vivo, beagle dogs; conditions: for Number of stem cells (250 × 250 μm^2): one month
Description: as §4

[11] = International Publication WO 01/93871; cited from earlier work
[12] = system: human coronary artery smooth muscle cells; conditions: International Publication WO 01/93871; cited from earlier work
[13] = Adventitia, 5% drug 0.5 mL injected locally after balloon dilation
[14] = Intima, 5% drug 0.5 mL injected locally into vessel wall after balloon dilation, per unit area at highest-cell-density site
[15] = Media, 5% drug 0.5 mL injected locally after balloon dilation

SMILES	Number of stem cells [1, 13]	Number of stem cells [1, 14]	Number of stem cells [1, 15]	stem cell density compared with the non-administration group [1]	effect of inhibiting proliferation of human vascular endothelial cells (HUBEC) [2]	number of cells after culturing for three days ([2]; Concentration (mol) 10^−4)	number of cells after culturing for three days ([2]; Concentration (mol) 10^−5)	number of cells after culturing for three days ([2]; Concentration (mol) 10^−6)	number of cells after culturing for three days ([2]; Concentration (mol) 10^−7)	number of cells after culturing for three days ([2]; Concentration (mol) 10^−8)	Number of dendritic cells (250 × 250 μm^2) ([3]; Adventitia)	invasion of dendritic cells [3]	Number of dendritic cells (250 × 250 μm^2) ([3]; Intima)	Number of dendritic cells (250 × 250 μm^2) ([3]; Media)	stenosis as determined through coronary angiography [4]	number of cells after culturing for three days ([5]; Concentration (mol) 10^−4)	number of cells after culturing for three days ([5]; Concentration (mol) 10^−5)	number of cells after culturing for three days ([5]; Concentration (mol) 10^−6)	number of cells after culturing for three days ([5]; Concentration (mol) 10^−7)	number of cells after culturing for three days ([5]; Concentration (mol) 10^−8)	other results
O=C1OC(c2ccc(O)c(S(=O)(=O)O)c2)(c2ccc(O)c(S(=O)(=O)O)c2)c2c(Br)c(Br)c(Br)c(Br)c21 [Bromosulfophthalein, bromosulfophthalein]	22.0 ± 6.2* 250×250 um^2	14.8 ± 6.1* 250×250 um^2	16.1 ± 4.8 250×250 um^2	significantly lower	no effect	3.44	3.43	3.52	3.59	3.34	3.6 ± 0.9* 250 × 250 μm^2	inhibited	1.6 ± 0.4* 250 × 250 μm^2	1.1 ± 0.1 250 × 250 μm^2	significantly inhibited	3.43	3.78	4.19	4.14	4.24	Stenosis degree (%) [4]: 33.5 ± 10.4 %; effect of inhibiting proliferation of vascular smooth muscle cells [5]: no effect; Stenosis degree (%) [6]: 11.2 ± 3.1 %; Number of stem cells (250 × 250 μm^2) ([7]; Adventitia): 20.3 ± 9.9* 250 × 250 μm^2; Number of stem cells (250 × 250 μm^2) ([7]; Intima): 8.8 ± 2.6** 250 × 250 μm^2; Number of stem cells (250 × 250 μm^2) ([7]; Media): 8.6 ± 5.0* 250 × 250 μm^2; effect of inhibiting thrombus formation (antithrombotic effect) [8]: no effect; also recorded: nor antithrombotic effect; Average thrombus weight [8]: 210 mg
O=S1(=O)OC(c2ccc(O)cc2)(c2ccc(O)cc2)c2ccccc21 [Phenolsulfonphthalein, phenolsulfonphthalein]	19.3 ± 6.3* 250×250 um^2	11.0 ± 4.2* 250×250 um^2	10.1 ± 2.8* 250×250 um^2	significantly lower	no effect	3.37	3.40	3.35	3.43	3.47	1.0 ± 0.5* 250 × 250 μm^2	inhibited	0.2 ± 0.0* 250 × 250 μm^2	0.0 ± 0.0* 250 × 250 μm^2	significantly inhibited	3.65	3.88	4.17	4.02	4.08	cell invasion (FIG. 2) ([1]; four weeks after dilation): less observed; cell invasion from the adventitia into the intima (FIG. 1) ([1]; one week after dilation with a balloon, azan staining): virtually no cell invasion is observed; also recorded: not observed; Stenosis degree (%) [4]: 10.1 ± 2.5 %; stenosis due to intimal hyperplasia (FIG. 2) ([4]; four weeks after dilation, azan staining): only slight intimal hyperplasia; also recorded: only slightly observed; degree of stenosis [9]: significantly lower; Stenosis degree (%) ([9]; one month, coronary angiography): 10.4 ± 2.7 %; effect of inhibiting proliferation of vascular smooth muscle cells [5]: no effect; Stenosis degree (%) [6]: 0 ± 0.0 %; Number of stem cells (250 × 250 μm^2) ([7]; Adventitia): 16.0 ± 7.1* 250 × 250 μm^2; Number of stem cells (250 × 250 μm^2) ([7]; Intima): 7.1 ± 3.2** 250 × 250 μm^2; Number of stem cells (250 × 250 μm^2) ([7]; Media): 9.0 ± 4.0* 250 × 250 μm^2; effect of inhibiting thrombus formation (antithrombotic effect) [8]: no effect; also recorded: nor antithrombotic effect; Average thrombus weight [8]: 195 mg; β-actin-positive cell density compared with the non-administration group [10]: significantly lower; Number of stem cells (250 × 250 μm^2) ([10]; Adventitia): 12.2 ± 3.4* 250 × 250 μm^2; Number of stem cells (250 × 250 μm^2) ([10]; Intima): 2.0 ± 0.8* 250 × 250 μm^2; Number of stem cells (250 × 250 μm^2) ([10]; Media): 2.6 ± 0.7* 250 × 250 μm^2
Cc1cc(-c2ccc(/N=N/c3ccc4c(S(=O)(=O)O)cc(S(=O)(=O)O)c(N)c4c3O)c(C)c2)ccc1/N=N/c1ccc2c(S(=O)(=O)O)cc(S(=O)(=O)O)c(N)c2c1O [Evans Blue]						0.12**	0.98*	1.54*	3.11*	3.50						0.07***	0.34**	1.00*	3.50*	3.89	antithrombotic effect [11]: antithrombotic effect; effect of inhibiting proliferation of vascular smooth muscle cells [12]: has the effect of inhibiting proliferation of vascular smooth muscle cells
